# Data from patent publication US8399525B2, “Treatment of gaucher disease with specific pharmacological chaperones and monitoring treatment using surrogate markers” (Amicus Therapeutics, Inc., priority 2007, dated 2013).
# Molecular target: T1, N370S GCase (Homo sapiens, UniProt P04062, N409S)
# T1 sequence (P04062 40-536 N409S): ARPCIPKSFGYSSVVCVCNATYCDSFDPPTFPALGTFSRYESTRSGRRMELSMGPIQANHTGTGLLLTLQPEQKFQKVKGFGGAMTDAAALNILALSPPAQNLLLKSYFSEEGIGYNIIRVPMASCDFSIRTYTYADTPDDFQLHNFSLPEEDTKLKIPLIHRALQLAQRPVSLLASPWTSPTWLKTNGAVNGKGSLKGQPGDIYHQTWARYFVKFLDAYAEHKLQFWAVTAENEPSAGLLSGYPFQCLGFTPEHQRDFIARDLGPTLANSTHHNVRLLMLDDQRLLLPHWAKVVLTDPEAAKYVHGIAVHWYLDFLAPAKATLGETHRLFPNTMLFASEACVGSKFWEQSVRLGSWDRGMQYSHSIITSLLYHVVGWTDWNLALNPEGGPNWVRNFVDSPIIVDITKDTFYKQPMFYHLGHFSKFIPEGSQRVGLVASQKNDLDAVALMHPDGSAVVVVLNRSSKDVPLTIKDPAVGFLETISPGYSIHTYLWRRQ
# Assay: Pulse-chase experiments on N370S GCase
# Conditions: data not shown
structure (smiles),measurement,value
"OC[C@H]1CNC[C@@H](O)[C@@H]1O [isofagomine, (3R,4R,5R)-5-(hydroxymethyl)-3,4-piperidinediol]",N370S GCase in the ER,increases N370S GCase in the ER
